Test results taken from patent US20200246308A1, “SYNERGISTIC COMBINATIONS OF UROLITHINS A AND B FOR IMPROVING COGNITIVE CAPACITY OR COGNITIVE FUNCTION” (Natreon, Inc., priority 2018, published 2020).
Entries after “also recorded” stand apart in the source; their conditions may differ.

Legend:
[1] = target: T1, acetylcholinesterase activity in HIP homogenate (Rattus norvegicus, UniProt P37136); experiment: Acetylcholinesterase activity in hippocampal tissue, Amplex Red kit (Example 9C); format: in vivo, Male Wistar rats; conditions: p.o. 7 days: B 50, A 50, Donepezil 3, B:A 10:50 and 50:50 mg/kg, Shilajit 25 mg/kg b.i.d
T1 construct: The acetylcholinesterase activity in brain tissues was measured using Amplex red assay kit; from tissue; host or cells: rat hippocampus (brain tissue homogenate supernatant)
T1 sequence (P37136 32-614): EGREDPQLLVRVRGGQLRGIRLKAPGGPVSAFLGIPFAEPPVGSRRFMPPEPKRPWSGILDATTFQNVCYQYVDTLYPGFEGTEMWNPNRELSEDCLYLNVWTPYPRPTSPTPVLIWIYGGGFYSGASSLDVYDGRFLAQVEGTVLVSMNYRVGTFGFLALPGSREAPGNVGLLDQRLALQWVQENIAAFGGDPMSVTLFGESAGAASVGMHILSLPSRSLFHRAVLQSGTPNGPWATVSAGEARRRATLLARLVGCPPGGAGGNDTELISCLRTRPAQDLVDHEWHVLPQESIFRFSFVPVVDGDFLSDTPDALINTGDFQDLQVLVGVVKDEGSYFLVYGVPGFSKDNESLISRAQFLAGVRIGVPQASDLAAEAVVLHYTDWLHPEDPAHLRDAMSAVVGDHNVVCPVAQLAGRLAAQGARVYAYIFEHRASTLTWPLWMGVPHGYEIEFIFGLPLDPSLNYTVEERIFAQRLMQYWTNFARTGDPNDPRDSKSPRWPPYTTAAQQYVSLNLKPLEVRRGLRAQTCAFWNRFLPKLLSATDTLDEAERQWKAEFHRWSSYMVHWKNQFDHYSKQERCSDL
Experimental: Drug solution was freshly prepared in 0.3% CMC and administered by oral gavage once a day, for a period of 7 days. Briefly, the whole experiment was conducted for 8 days. Scopolamine (1 mg/kg), a muscarinic receptor antagonist, was dissolved in normal saline (0.9% NaCl) and administered intraperitoneally 1 h after drugs administration on seventh day.
Sample preparation: The animals were killed by decapitation and the brain tissues were dissected out in ice-cold conditions and stored at −80° C. until use. Tissue was homogenized in 1.0 ml of 0.1M perchloric acid with a Potter-Elvehjem homogenizer. The homogenate was kept in the polypropylene tubes for 15 min after which 40 μl of 4M potassium acetate was added to adjust the pH to 4.0 followed by centrifugation for 15 min at 4000×g. Supernatant was used to estimate acetylcholine and AChE activities.
Spectrofluorometric assay of acetylcholinesterase activity: The acetylcholinesterase activity in brain tissues was measured using Amplex red assay kit (Molecular Probes, Inc., USA). An acetylcholinesterase standard curve was used in each experiment. Briefly, Begin the reactions by adding 0.1 ml of control (10 μM H2O2) and tissue homogenate were taken in two separate polypropylene tubes and then 0.1 ml working solution of 400 μM Amplex Red reagent containing 2 U/mL HRP, 0.2 U/mL choline oxidase and 100 μM acetylcholine were added to each tube. After incubation for 45 min, the fluorescence was recorded with the help of spectrofluorometer at 530 nm excitation and 590 nm emission wavelengths.
Statistical analyses: The results were expressed as means±Standard Error mean (SEM). The intergroup variation was measured by one-way ANOVA followed by Student-Newman-Keuls test. […] Statistical analysis was done by using Graph Pad prism version 5 (San Diego, Calif.). A level of p<0.05 was accepted as statistically significant.

[2] = target: T2, AchE from Electrophorus electricus (electric eel) (Electrophorus electricus, UniProt O42275); experiment: In-vitro AChE inhibition assay, Ellman method; format: biochemical
T2 construct: purchased Sigma Aldrich
Source text: AchE from Electrophorus electricus (electric eel) CAS: 9000-81-1 was procured from Sigma Aldrich (St. Louis, Mo., USA). 5,5′-dithiobis (2-nitrobenzoic acid) (DTNB-Ellman's reagent) and acetylcholine iodide, (AChI) were procured from local suppliers (HiMedia, Pvt. Ltd., New Delhi, India). All other chemicals and reagents were available commercially from local suppliers (Merck Pvt. Ltd., New Delhi and HiMedia Laboratories Pvt Ltd., New Delhi, India) and were of analytical grade.
The procedure described by Ellman et al. was used after some modification for AChE inhibition assay. Acetylthiocholine iodide (ATCI), 5,5′-dithiobis (2-nitrobenzoic acid) (DTNB-Ellman's reagent) were purchased from Himedia. Donepezil was used as positive control. Tris-HCl buffer (pH 8) was used to perform the in-vitro assay. […] 50 μL of AChE (0.22 U mL^−1) and 10 μL of test or standard compounds were incubated in 96 well plate for 30 min. at room temperature (See, Table 3).
Further, substrate i.e. ATCI (15 mM, 30 μL) was added and it was incubated for additional 30 min. Finally 160 μL (1.5 mM) of DTNB was added and the absorbance was recorded at 415 nm using Epoch microplate reader (BioTek). The IC50 value was calculated using absorbance obtained from the test and standard compounds. The assay was performed in triplicate and in three independent runs.
Percentage inhibition=(Control−Test)/Control×100 Equation (1)
50 μL of AChE (0.22 U mL^−1) and 10 μL of test or standard compounds were incubated in 96 well plate for 30 min. at room temperature.
Further, substrate i.e. ATCI (15 mM, 30 μL) was added and it was incubated for additional 30 min. Finally 160 μL (1.5 mM) of DTNB was added and the absorbance was recorded at 415 nm using Epoch microplate reader (BioTek). The IC50 value was calculated using absorbance obtained from the test and standard compounds. The assay was performed in triplicate (see Equation 1).

Human recombinant AChE [3] = target: T3, Human recombinant AChE (Homo sapiens, UniProt P22303); experiment: In-vitro human recombinant AChE inhibition assay, Ellman method; format: biochemical; conditions: Table 10
T3 construct: purchased Sigma Aldrich
Source text: In-vitro human recombinant AChE inhibition assay: Procedure described by Ellman et al. was used after some modification for AChE inhibition assay. Human recombinant AChE was purchased from Sigma Aldrich (St. Louis, Mo.). Acetylthiocholine iodide (ATCI), 5,5′-dithiobis (2-nitrobenzoic acid) (DTNB-Ellman's reagent) were purchased from Himedia Pvt. Ltd. (New Delhi, India). Donepezil was used as positive control groups. Tris-HCl buffer (pH 8) was used to perform the in-vitro assay.
Further, substrate i.e. ATCI (15 mM, 30 μL) was added and it was incubated for additional 30 min. Finally 160 μL (1.5 mM) of DTNB was added and the absorbance was recorded at 415 nm using Epoch microplate reader (BioTek). The IC50 value was calculated using absorbance obtained from the test and standard compounds. The assay was performed in triplicate and in three independent runs (see Equation 1).

Human recombinant AChE [4] = target: T3, Human recombinant AChE; experiment: In-vitro human recombinant AChE inhibition assay, Amplex Red kit method; format: biochemical; conditions: Table 11
Experimental: In-vitro human recombinant AChE inhibition assay by Amplex Red kit method: The anticholinesterase activity of experimental drugs was measured by using Amplex red assay kit (Molecular Probes, Inc., USA). Fluorescence assay used for the screen of Human AChE activity in the presence of each experimental drug from a commercially available kit (Amplex Red, Invitrogen, Thermo Fisher Scientific, Waltham, Mass.). Acetylcholine, the product of AChE catalysis, was converted to a fluorescent called resorufin by the addition of a series of kit enzymes, including Choline oxidase (CO), horseradish peroxidase (HRP), and the fluorogenic substrate Amplex Red. As the fluorescent molecule resorufin is dependent on acetylcholine production and acetylcholine production is the product of AChE catalysis, the rate of change in fluorescence is a measurement of AChE activity. […] The following procedure is designed for use with a fluorescence multi-well plate scanner. […]
Positive control wells, representing 100% Human recombinant AChE activity (0% human-AChE inhibition), contained, Acetylcholine, and Amplex Red solution. […] Fluorescence measurements were taken at baseline (immediately after substrate was added to each well), and after a 60-minute incubation at 37° C. The fluorescence micro-plate reader was measured using excitation in the range of 530-560 nm and emission detected at 590 nm. […]

[5] = tested on: cortical brain mitochondria; experiment: Mitochondrial respiration and respiratory control ratio (RCR) of isolated brain cortex mitochondria after 21 days treatment; conditions: for Respiratory control ratio (RCR): old mice (18 to 20 month), 50 mg/kg p.o.; for Respiratory control ratio (RCR) / Mitochondrial respiration in all states: 21 days; for State II respiratory rate / Mitochondrial respiration in all states: 50 mg/kg; for Mitochondrial respiration in all states: young and old mice, vs respective normal control; for Respiratory rate at state V (complex I): FCCP
Experimental: Briefly the mitochondria were added to the chamber and respiratory states were evaluated by suitable substrates and inhibitors. Purified mitochondrial protein was suspended in respiration buffer in a final volume of 250 μL. State II respiration was initiated by addition of Pyruvate/Malate (P/M), with basal rate of respiration. […] State IV was measured by addition of oligomycin. The respiration returns to basal rate since the ATP synthase is shut down and no electrons are allowed to return to the matrix. The electron transport chain (ETC) continues only to maintain mitochondrial membrane potential due to loss of protons back into the matrix. State V was measured by addition of FCCP. This represents the maximum rate of respiration, causing uncoupling of the ETC to ATP synthesis, and allows protons to rush back into the matrix. Rotenone was then added to shut down complex I-driven respiration. State V (succinate) was determined by addition of succinate. This is the maximum rate of respiration via complex II, since FCCP is present in the system.

[6] = Table 2, B:A ratios from mg/ml solutions
[7] = Table 5, Shilajit:B:A combinations from mg/ml solutions

T2 sequence (O42275 24-633): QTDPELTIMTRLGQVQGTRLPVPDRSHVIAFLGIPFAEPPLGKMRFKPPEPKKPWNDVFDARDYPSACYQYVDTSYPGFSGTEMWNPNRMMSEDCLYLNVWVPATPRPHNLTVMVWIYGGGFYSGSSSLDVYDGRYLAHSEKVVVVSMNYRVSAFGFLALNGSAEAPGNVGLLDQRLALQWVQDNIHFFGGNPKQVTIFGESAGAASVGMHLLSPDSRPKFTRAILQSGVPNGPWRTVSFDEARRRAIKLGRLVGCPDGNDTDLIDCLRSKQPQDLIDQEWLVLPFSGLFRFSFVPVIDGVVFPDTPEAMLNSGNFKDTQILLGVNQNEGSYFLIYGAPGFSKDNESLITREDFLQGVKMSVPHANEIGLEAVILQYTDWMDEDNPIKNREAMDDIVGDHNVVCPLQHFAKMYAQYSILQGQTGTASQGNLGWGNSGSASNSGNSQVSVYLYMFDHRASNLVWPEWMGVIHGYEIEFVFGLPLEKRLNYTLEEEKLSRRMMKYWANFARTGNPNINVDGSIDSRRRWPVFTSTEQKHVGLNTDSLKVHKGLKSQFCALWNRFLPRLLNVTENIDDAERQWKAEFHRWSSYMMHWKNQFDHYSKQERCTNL
T3 sequence (P22303 32-614): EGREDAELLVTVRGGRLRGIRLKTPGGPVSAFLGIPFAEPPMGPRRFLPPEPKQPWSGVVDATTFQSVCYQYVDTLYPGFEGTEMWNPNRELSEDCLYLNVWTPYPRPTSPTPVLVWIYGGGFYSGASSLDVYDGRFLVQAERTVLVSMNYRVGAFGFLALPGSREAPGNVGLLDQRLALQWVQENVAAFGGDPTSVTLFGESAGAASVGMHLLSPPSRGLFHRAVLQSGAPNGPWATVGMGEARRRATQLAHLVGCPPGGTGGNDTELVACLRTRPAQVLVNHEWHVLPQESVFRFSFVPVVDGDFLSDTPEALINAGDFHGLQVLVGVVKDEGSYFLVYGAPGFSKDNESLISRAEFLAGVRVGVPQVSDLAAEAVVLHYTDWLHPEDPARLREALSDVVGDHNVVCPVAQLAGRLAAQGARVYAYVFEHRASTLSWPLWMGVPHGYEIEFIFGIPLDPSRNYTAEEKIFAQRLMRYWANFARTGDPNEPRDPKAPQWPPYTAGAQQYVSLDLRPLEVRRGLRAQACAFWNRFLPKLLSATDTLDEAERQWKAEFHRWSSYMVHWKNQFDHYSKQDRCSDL

O=c1oc2cc(O)ccc2c2ccc(O)cc12 [Urolithin A, 3,8-dihydroxy-dibenzo-alpha-pyrone]
Scopolamine-induced increase in acetylcholinesterase activity in HIP homogenate ([1]; listed as 3,8-(OH)2-DBP (A)): attenuated the scopolamine induced increase acetylcholinesterase activity; also recorded: less effective than 3-OH-DBP (B) 50 mg/kg | IC50 [2, 6]: 0.1793 ± 0.0092 µg/mL | IC50 [2, 7]: 0.1793 ± 0.0092 µg/mL | IC50 (Human recombinant AChE [3]): 410.50 ± 38.52 µg/mL | IC50 (Human recombinant AChE [4]): 528.00 ± 70.71 µg/mL | Respiratory control ratio (RCR) ([5]; vs old control): significantly increased the RCR | State II respiratory rate ([5]; old mice, vs old control): found to be increased | Mitochondrial respiration in all states [5]: significantly increased mitochondrial respiration | State II respiratory rate ([5]; young mice, vs young control): significant increases in respiratory rate | Respiratory rate at state V (complex I) ([5]; young mice): significantly found to be increased

O=c1oc2cc(O)ccc2c2ccccc12 [Urolithin B, 3-hydroxy-dibenzo-alpha-pyrone]
Scopolamine-induced increase in acetylcholinesterase activity in HIP homogenate [1]: attenuated the scopolamine induced increase acetylcholinesterase activity | IC50 [2, 6]: 0.1430 ± 0.0057 µg/mL | IC50 [2, 7]: 0.1430 ± 0.0057 µg/mL | IC50 (Human recombinant AChE [3]): 272.67 ± 42.11 µg/mL | IC50 (Human recombinant AChE [4]): 412.00 ± 28.28 µg/mL | Respiratory control ratio (RCR) ([5]; vs old control): significantly increased the RCR | State II respiratory rate ([5]; old mice, vs old control): found to be increased | Mitochondrial respiration in all states [5]: significantly increased mitochondrial respiration | State II respiratory rate ([5]; young mice, vs young control): significant increases in respiratory rate | Respiratory rate at state V (complex I) ([5]; young mice): significantly found to be increased; also recorded: less effect
